Assay results from PubChem BioAssay (NCI).
“And” between values parts separate entries of the source, which are not always exact repeats. Equal entries are not always repeated.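 Cultured in 96-well plates, cells were exposed to test compound for 48 hours across five concentrations. The concentration for 50% growth inhibition is given as GI50. The concentration for full growth arrest is given as TGI.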

How the values were obtained:
Experiment in all cases: inhibition of tumour cell growth, NCI panel, 48 h
ACHN renal = system: ACHN renal
EKVX NSCLC = system: EKVX NSCLC
HCT-15 colon = system: HCT-15 colon
NCI-H23 lung = system: NCI-H23 lung
RPMI-8226 leukemia = system: RPMI-8226 leukemia
T-47D breast = system: T-47D breast
COLO 205 colon = system: COLO 205 colon
OVCAR-3 ovarian = system: OVCAR-3 ovarian
RXF 393 renal = system: RXF 393 renal
SK-MEL-5 melanoma = system: SK-MEL-5 melanoma

Structure (SMILES) | TGI (ACHN renal) | TGI (EKVX NSCLC) | TGI (HCT-15 colon) | TGI (NCI-H23 lung) | TGI (RPMI-8226 leukemia) | TGI (T-47D breast) | TGI (COLO 205 colon) | TGI (OVCAR-3 ovarian) | TGI (RXF 393 renal) | TGI (SK-MEL-5 melanoma) | GI50 (ACHN renal) | GI50 (COLO 205 colon) | GI50 (EKVX NSCLC) | GI50 (HCT-15 colon) | GI50 (NCI-H23 lung) | GI50 (OVCAR-3 ovarian) | GI50 (RXF 393 renal) | GI50 (T-47D breast) | GI50 (RPMI-8226 leukemia) | GI50 (SK-MEL-5 melanoma)
CS(=O)(=O)c1ccc(C(=O)Nc2ccc(Cl)c(-c3ccccn3)c2)c(Cl)c1 | > 100 µM and 23.5 µM | > 100 µM and 14.9 µM | > 100 µM and 21.2 µM | > 100 µM and 17.2 µM | > 100 µM and 10.6 µM | > 100 µM and 12.1 µM | – | – | – | – | – | – | – | – | – | – | – | – | – | –
C[Si](C)(C)OC1(C#N)C2C3CC4C2C(=O)C2C4C3C21 (stereo not given) | > 100 µM | – | > 100 µM | – | > 100 µM | – | > 100 µM | > 100 µM | > 100 µM | > 100 µM | – | – | – | – | – | – | – | – | – | –
Cn1c2c(cc(S(=O)(=O)c3ccccc3)c1=O)CCc1c-2cnn1-c1ccc(Cl)cc1 | 3.88 µM | 31 µM | > 100 µM | > 100 µM | – | 5.5 µM | > 100 µM | 5.67 µM | 3.71 µM | – | 1980 nM | > 100 µM | 3.62 µM | 3.02 µM | 4.65 µM | 2450 nM | 1900 nM | 2060 nM | – | –
CCC1CN2CCc3cc(OC)c(OC)cc3C2CC1CC1c2cc(OC)c(OC)cc2CCN1C(=O)C1CCCN1C(=O)OCc1ccccc1 (stereo not given) | 32.1 µM | 43.3 µM | 29.9 µM | 32.7 µM | 36.5 µM | – | – | 30.7 µM | 22.4 µM | 28.8 µM | – | – | – | – | – | – | – | – | – | –
N#CC(C(=O)CCC(=O)Nc1cccc(Cl)c1)c1ccccc1 (stereo not given) | > 100 µM | > 100 µM | > 100 µM | > 100 µM | > 100 µM | – | > 100 µM | > 100 µM | > 100 µM | > 100 µM | – | – | – | – | – | – | – | – | – | –
C/C(=N\Nc1ccc2ccccc2n1)c1ccccn1 | 1.32 µM | – | 5.72 µM | 13.6 µM | 2.89 µM | 3.2 µM | 2.7 µM | 4.24 µM | 5.86 µM | 2.24 µM | < 38.9 nM | < 0.0195 µM | – | – | 0.156 µM | < 19.2 nM | 229 nM | < 33.2 nM | 89.7 nM | 103 nM
CC(=O)OC1CCn2nnc(CO[Si](C)(C)C(C)(C)C)c21 (stereo not given) | > 100 µM | > 100 µM | > 100 µM | > 100 µM | > 100 µM | – | > 100 µM | > 100 µM | > 100 µM | > 100 µM | – | – | – | – | – | – | – | – | – | –
Cc1cc2c(C)n(Cc3ccc(Cl)cc3Cl)nc2c(C#N)c1C | > 100 µM | > 100 µM | > 100 µM | > 100 µM | > 100 µM | – | > 100 µM | > 100 µM | 57.3 µM | > 100 µM | – | – | – | – | – | – | – | – | – | –
CCOC(=O)C(=O)Nc1c(CC)cccc1C(C)C | > 100 µM | > 100 µM | > 100 µM | > 100 µM | > 100 µM | – | > 100 µM | > 100 µM | > 100 µM | – | – | – | – | – | – | – | – | – | – | –
CC(C)CC(CC1=CCC2CC1C2(C)C)C1=C(O)C(C)(C)C(=O)C(C)(C)C1=O (stereo not given) | 3.58 µM | > 100 µM | 5.18 µM | 1.57 µM | 0.558 µM | – | – | > 100 µM | 3.83 µM | 0.468 µM | 352 nM | – | 0.33 µM | 0.35 µM | 0.321 µM | 359 nM | 434 nM | – | 227 nM | 206 nM
CCOC(=O)C(C)(c1cn(C)c2ccccc12)c1cn(C)c2ccccc12 | > 100 µM | > 100 µM | > 100 µM | > 100 µM | > 100 µM | – | – | > 100 µM | > 100 µM | > 100 µM | – | – | – | – | – | – | – | – | – | –
CCOC(=O)C1Oc2ccc([N+](=O)[O-])c3c2C1(O)CCC3 (stereo not given) | > 100 µM | > 100 µM | > 100 µM | > 100 µM | > 100 µM | – | > 100 µM | > 100 µM | > 100 µM | > 100 µM | – | – | – | – | – | – | – | – | – | –
O=C(O)C1(P(=O)(O)O)CC1 | > 100 µM | > 100 µM | > 100 µM | > 100 µM | > 100 µM | – | > 100 µM | > 100 µM | > 100 µM | > 100 µM | – | – | – | – | – | – | – | – | – | –
O=C1C(=O)N(c2ccc(Cl)c(Cl)c2)C(=O)C(=O)C1c1nc2ccccc2s1 | > 100 µM | > 100 µM | > 100 µM | > 100 µM | > 100 µM | – | > 100 µM | > 100 µM | > 100 µM | > 100 µM | – | – | – | – | – | – | – | – | – | –
COc1ccc(C2CC(c3cc(OC)c(OC)c(OC)c3)=NN2C(C)=O)cc1OCC(=O)Nc1nc2ccc(C(F)(F)F)cc2s1 (stereo not given) | 7.13 µM | > 100 µM | > 100 µM | 33 µM | 7.09 µM | – | > 100 µM | – | 5.32 µM | > 100 µM | 2480 nM | 3.94 µM | 4.1 µM | 9.26 µM | 3.76 µM | – | 2090 nM | – | 2210 nM | 3560 nM
COC1CC(OS(=O)(=O)c2ccc(C)cc2)C(OC(=O)c2ccccc2)C(C)O1 (stereo not given) | > 100 µM | > 100 µM | > 100 µM | > 100 µM | > 100 µM | – | > 100 µM | > 10 µM | > 100 µM | > 100 µM | > 100000 nM | > 100 µM | > 100 µM | > 100 µM | > 100 µM | – | > 10000 nM | – | – | > 100000 nM
CCCn1c(C)nc2c1C(=O)c1ccccc1C2=O | > 100 µM | 70.8 µM | > 100 µM | > 100 µM | > 100 µM | > 100 µM | > 100 µM | 39.2 µM | – | 27.2 µM | 37700 nM | 37.6 µM | 18.9 µM | 14.2 µM | 26.7 µM | 11600 nM | – | 35100 nM | 17200 nM | 13400 nM
O=S(=O)(c1ccccc1)C(CN1CCCCC1)S(=O)(=O)c1ccccc1 | > 100 µM | – | > 100 µM | > 100 µM | > 100 µM | – | > 100 µM | > 100 µM | > 100 µM | – | – | – | – | – | – | – | – | – | – | –
Cc1ccc(-c2cc(-c3ccc(C)cc3)nc(NCCNc3ccnc4cc(Cl)ccc34)n2)cc1 | 3.13 µM | 3.52 µM | 3.16 µM | 3.85 µM | 4.45 µM | 3.6 µM | 3.48 µM | 3.15 µM | – | 3.44 µM | 1680 nM | 1.69 µM | 1.69 µM | 1.55 µM | 1.91 µM | 1660 nM | – | 1740 nM | 1850 nM | 1830 nM
